Measured values as given in publication PMC12508063, “Chloroindazole based estrogen receptor β ligands with favorable pharmacokinetics promote functional remyelination and visual recovery” (Scientific Reports, 2025).

Tests used:
[1] = target: CYP1A2 (Homo sapiens, UniProt P05177); experiment: in vitro
[2] = Stability in human plasma; type: in vitro ADME
[3] = test system: primary mouse OPCs; experiment: OL differentiation in primary mouse OPC culture (MBP, DAPI); type: cell-based; conditions: 10 nM and 100 nM, concentration-dependent
Description: Mouse and Human primary cell cultures: Primary OPC/OL culture were isolated from the cortices of postnatal day 0–1 C57BL/6J mice of both sexes, using established protocols[11],[20],[21]. Mouse OPC and Neuronal Co-cultures: Primary neuronal cultures were established in Neurobasal medium with B27 and plated on poly-L-lysine-coated coverslips. After 12 days, OPCs were isolated, counted, and added to neuronal cultures and media was replaced with neuronal and proliferation media for 3 days, then switched to maturation media that maintained both neurons and OLs. Human iPSC-derived OPCs (Tempo’s iOligo™) were expanded, cryopreserved, and later plated on Matrigel-coated coverslips. After 3 days in growth medium, cells were treated for 3 weeks with T3 containing maturation medium. Differentiation into myelin-producing OLs was assessed using O4 (OL surface marker on pre-OLs) and myelin basic protein (MBP) immunohistochemistry. In all conditions compounds or vehicle were added to culture during differentiation for either 5 days (mouse) or 18 days (human).
Immunocytochemistry and Image Analysis of cell cultures: After treatment, cells were fixed and stained for MBP and DAPI. Coverslips were imaged using a confocal microscope at 10× and 40× objectives. Cell densities were quantified using ImageJ and normalized to control conditions. MBP-positive cells, their process extensions, and highly branched OLs were counted to assess differentiation. Co-culture images were analyzed for MBP and β3-tubulin colocalization using JACoP[22] in ImageJ, with results validated by manual quantification.
Primary OL Progenitor cells (OPC) and Neuronal Cultures: OPC and cortical neuronal cultures were prepared from the cortices of postnatal day P0-P1 C57BL/6J mice of both sexes, following established protocols (1, 2);(3). The single-cell suspension was divided into two tubes. One tube was treated with warm Neuronal Basal media, counted, and plated onto poly-L-lysine (PLL)-coated glass coverslips. The second tube was resuspended in glial growth medium, composed of DMEM-F12 supplemented with 10% fetal bovine serum, and placed in a PLL-coated culture flask for 8–10 days until confluent. Primary OPCs were then isolated by shaking and either co-cultured with primary neurons or plated onto poly-D-lysine-coated glass coverslips (three coverslips per condition, 2x10^6 cells per coverslip). The OPCs were allowed to attach for three days, followed by five days in differentiating media (DMEM-F12 with Sato media containing triiodothyronine and thyroxine) supplemented with various analogues and remyelinating compounds. For comparison, a negative control (vehicle, consisting of the media and ethanol mixture used to dissolve the analogues and remyelinating compounds) and a normal control (differentiating media alone) were included in the experiments.
Quantification of Mature OLs and Co-culture axon myelination: At the conclusion of the treatment period, cells were fixed and subjected to immunocytochemistry to evaluate myelin basic protein (MBP) expression, co-stained with the nuclear marker DAPI (shown in blue). […] Cell counting was performed using the ImageJ multipoint tool, and cell densities were calculated by dividing the counts by the image area (mm²). […]
To assess OL differentiation, the number of MBP-positive (MBP+) cells and process extensions exceeding the diameter of the cell body were quantified.

[4] = test system: EAE mice; experiment: EAE clinical disease score; type: in vivo, C57BL/6J mouse; conditions: 5 mg/kg/day SC from peak disease
Description: EAE induction and treatment: EAE was induced in 8–10-week-old wild-type C57BL/6J mice using MOG₃₅-₅₅ peptide[11],[14],[23]–[25]. Mice were scored daily using a standard clinical scale (0–5) and tested for their ability to stay on a rotarod. […] At peak disease (18–22 days post-immunization), animals were grouped into EAE+Vehicle, EAE+K102, and EAE+K110.
Fig. 3 Experimental design for treatment effects in EAE. (A) Experimental plan. […] Following emulsion injection, mice were injected with pertussis (PTX). Mice were scored for their clinical EAE score daily. EAE mice (red) show signs of disease starting at days 8–17. At peak disease between the days […], therapeutic treatment started and continued daily until the end of the experiment (D35-45). […] N = 6–8 mice/group. Two-Way unbalanced ANOVA with Dunnett’s multiple comparisons test was performed. […]
EAE induction and treatment: Eight to ten-week-old wild-type C57BL/6J mice were induced with active EAE using MOG35-55 peptide as previously described (1-5). […] Animals were scored daily for clinical EAE scores as follows: 0, unaffected; 1, complete tail limpness; 2, failure to right upon attempt to roll over; 3, partial hind limb paralysis; 4, complete hind limb paralysis; […]. At peak disease 18-22 dpi, mice were scored and separated into 3 groups: EAE+V, EAE+SHK-K102, and EAE+K110. […]

[5] = hepatocytes
[6] = hepatocytes, 0.25 h
[7] = plasma
[8] = plasma; remark: listed apart in the source
[9] = test system: multiple sclerosis patients; conditions: oral estriol combined with glatiramer acetate (GA), Phase 2 trial; cited from earlier work

Chain of CYP1A2 (P05177 whole entry): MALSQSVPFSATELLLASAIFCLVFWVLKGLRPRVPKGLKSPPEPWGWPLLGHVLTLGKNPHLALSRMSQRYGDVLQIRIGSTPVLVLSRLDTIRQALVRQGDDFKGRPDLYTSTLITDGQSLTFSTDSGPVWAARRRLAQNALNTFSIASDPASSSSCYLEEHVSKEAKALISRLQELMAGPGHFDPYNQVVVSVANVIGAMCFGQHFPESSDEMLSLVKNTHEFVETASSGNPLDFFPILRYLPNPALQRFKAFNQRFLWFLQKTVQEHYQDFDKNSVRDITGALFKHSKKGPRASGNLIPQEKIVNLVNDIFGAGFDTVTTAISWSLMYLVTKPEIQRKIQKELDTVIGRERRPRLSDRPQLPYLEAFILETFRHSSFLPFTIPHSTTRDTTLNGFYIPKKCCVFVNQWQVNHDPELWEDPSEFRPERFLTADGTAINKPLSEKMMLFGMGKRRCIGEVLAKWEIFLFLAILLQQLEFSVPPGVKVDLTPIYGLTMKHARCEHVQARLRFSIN

SMILES: Cc1nc2c([nH]1)c(=O)n(C)c(=O)n2Cc1ccco1 [Furafylline]
- inhibition at 10 µM [1]: 91.7%

SMILES: Oc1ccc(-n2nc3ccc(O)cc3c2Cl)cc1 [Compound K101, IndCl]
- % Remaining at 6 hr in Human Plasma [2]: 91.37%
- number of MBP+ cells vs vehicle [3]: significantly increased
- EAE clinical disease [4]: decrease in EAE clinical disease
- Hepatocyte Stability (Human) CLint [5]: 78.30 µL/min/mg protein
- Hepatocyte Stability (Human) % Remaining (15 min) ([5]; 0.25 h): 57.83%
- Hepatocyte Stability (Mouse) % Remaining (15 min) [6]: 10.94%
- Protein Binding (% Bound) Mouse [7]: 97.74%
- Protein Binding (% Bound) Human [8]: 98.05%

SMILES: C[C@]12CC[C@@H]3c4ccc(O)cc4CC[C@H]3[C@@H]1C[C@@H](O)[C@@H]2O [estriol]
- reduction in annualized relapse rate compared to placebo [9]: 32%
